Measurements: paper PMC2577671, “Evaluation of Dimebon in cellular model of Huntington's disease” (Molecular Neurodegeneration, 2008)

Biological target: T1, α1B-Adrenergic receptor (Rattus norvegicus, UniProt P15823)
T1 construct: gene Adra1b
Assay: MDS Pharma Services binding screen at […]

T1 sequence (P15823 whole entry): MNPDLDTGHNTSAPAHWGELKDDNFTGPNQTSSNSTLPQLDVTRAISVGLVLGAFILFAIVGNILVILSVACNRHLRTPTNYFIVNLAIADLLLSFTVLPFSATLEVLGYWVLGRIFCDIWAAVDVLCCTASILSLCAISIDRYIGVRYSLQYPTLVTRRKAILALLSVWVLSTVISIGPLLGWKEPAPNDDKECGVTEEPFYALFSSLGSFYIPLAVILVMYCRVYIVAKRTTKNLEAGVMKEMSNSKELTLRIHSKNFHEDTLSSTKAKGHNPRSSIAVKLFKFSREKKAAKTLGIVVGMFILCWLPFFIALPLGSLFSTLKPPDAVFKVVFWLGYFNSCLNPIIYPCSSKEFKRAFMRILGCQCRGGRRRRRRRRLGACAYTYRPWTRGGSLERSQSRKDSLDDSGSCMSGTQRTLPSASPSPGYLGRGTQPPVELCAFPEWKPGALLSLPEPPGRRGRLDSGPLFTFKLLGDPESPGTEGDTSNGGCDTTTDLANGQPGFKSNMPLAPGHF

## Cc1ccc2c(c1)c1c(n2CCc2ccc(C)nc2)CCN(C)C1 [Dimebon, 2,3,4,5-Tetrahydro-2,8-dimethyl-5-(2-(6-methyl-3-pyridyl)ethyl)-1H-pyrido(4,3-b)indole]
  inhibition at 10 µM: > 90%
